Experimental data: article PMC6193938, “Characterization of a novel AICARFT inhibitor which potently elevates ZMP and has anti-tumor activity in murine models” (Scientific Reports, 2018)
Read-outs that look alike come from different tables or passages of the source.

Tests used:
NCI-H460 xenograft = experiment: Antitumor efficacy and tumor metabolites, mouse xenograft, normal folate diet; assay type: in vivo; settings: NCI-H460 tumors; after 13 days of treatment; normal chow
A101D (melenoma) = experiment: Low folate & high folate in vitro proliferation assay (Alamar Blue); assay type: cell-based; settings: Homo sapiens
Procedure: (§1) Cells lines were acquired from cell banks, see supplemental material, grown using the cell banks recommended culture conditions (Supplemental Table 3). In some experiments noted “low folate” the cells were washed and grown in folate free RPMI-1640 media (Gibco #27016-021) supplemented with 5 ml 1 M Hepes, 5 ml 100 mM Na pyruvate, 2.5 mg/ml glucose and 10% defined FBS (Hyclone #SH30070) per 500 mL media for 5–7 days to deplete intracellular folate levels prior to the start of the experiment. Where noted, cells were maintained in complete “high folate” RPMI-1640 media (ATCC #30-2001) with 10% defined FBS to contrast with the low folate conditions.
(§2) Cells were cultured using recommended culture conditions unless noted otherwise (Supplemental Table 3). Cells were plated, dosed with compound and incubated at 37 °C for approximately 2 doubling times as determined for each cell line. Cell Titer Glo (Promega) assay was used to measure proliferation according to manufacturer’s recommendations by measuring luminescence with Flexstation3 (Molecular Devices) with 500 ms integration time. […] The % response was fit to a four-parameter logistic equation using ACTIVITYBASE 4.0 to determine the absolute IC50 values.
(§3) For a limited number of cell lines, compound dosing was performed under high or low folate conditions with cell viability being determined with Alamar Blue rather than an ATP dependent assay. Cells were plated and treated as described above. Proliferation was measured using Alamar Blue Cell Viability Reagent (Invitrogen), and read after approximately 1.5–4 hours incubation at 37 °C on the Envision plate reader (Perkin Elmer) with excitation at 570 nm and emission at 585 nm. The % inhibition for each sample was calculated and fit as described above.

NCI-H1993 (lung) = experiment: as above; assay type: cell-based; settings: Homo sapiens
Procedure: as §1, §2, §3

NCI-H1299 = experiment: as above; assay type: cell-based; settings: Homo sapiens
Procedure: as §1, §2, §3

A549 (lung) = experiment: as above; assay type: cell-based; settings: Homo sapiens, low folate RPMI media
Procedure: as §1, §2, §3

MIA PaCa-2 (pancreas) = experiment: as above; assay type: cell-based; settings: Homo sapiens
Procedure: as §1, §2, §3

HCT 116 (colon) = experiment: as above; assay type: cell-based; settings: Homo sapiens
Procedure: as §1, §2, §3

NCI-H1155 (lung) = experiment: as above; assay type: cell-based; settings: Homo sapiens
Procedure: as §1, §2, §3

SW620 (colon) = experiment: as above; assay type: cell-based; settings: Homo sapiens
Procedure: as §1, §2, §3

SNU-16 (gastric) = experiment: as above; assay type: cell-based; settings: Homo sapiens
Procedure: as §1, §2, §3

MDA-MB-231 (mammary) = experiment: as above; assay type: cell-based; settings: Homo sapiens
Procedure: as §1, §2, §3

NCI-H1437 (lung) = experiment: as above; assay type: cell-based; settings: Homo sapiens
Procedure: as §1, §2, §3

HER2 = biological target: T1, HER2 (Homo sapiens, UniProt P04626); experiment: CEREP protein kinase assay; assay type: biochemical
T1 construct: purchased CEREP Panlabs (Eurofins)
T1 sequence (P04626 23-1255): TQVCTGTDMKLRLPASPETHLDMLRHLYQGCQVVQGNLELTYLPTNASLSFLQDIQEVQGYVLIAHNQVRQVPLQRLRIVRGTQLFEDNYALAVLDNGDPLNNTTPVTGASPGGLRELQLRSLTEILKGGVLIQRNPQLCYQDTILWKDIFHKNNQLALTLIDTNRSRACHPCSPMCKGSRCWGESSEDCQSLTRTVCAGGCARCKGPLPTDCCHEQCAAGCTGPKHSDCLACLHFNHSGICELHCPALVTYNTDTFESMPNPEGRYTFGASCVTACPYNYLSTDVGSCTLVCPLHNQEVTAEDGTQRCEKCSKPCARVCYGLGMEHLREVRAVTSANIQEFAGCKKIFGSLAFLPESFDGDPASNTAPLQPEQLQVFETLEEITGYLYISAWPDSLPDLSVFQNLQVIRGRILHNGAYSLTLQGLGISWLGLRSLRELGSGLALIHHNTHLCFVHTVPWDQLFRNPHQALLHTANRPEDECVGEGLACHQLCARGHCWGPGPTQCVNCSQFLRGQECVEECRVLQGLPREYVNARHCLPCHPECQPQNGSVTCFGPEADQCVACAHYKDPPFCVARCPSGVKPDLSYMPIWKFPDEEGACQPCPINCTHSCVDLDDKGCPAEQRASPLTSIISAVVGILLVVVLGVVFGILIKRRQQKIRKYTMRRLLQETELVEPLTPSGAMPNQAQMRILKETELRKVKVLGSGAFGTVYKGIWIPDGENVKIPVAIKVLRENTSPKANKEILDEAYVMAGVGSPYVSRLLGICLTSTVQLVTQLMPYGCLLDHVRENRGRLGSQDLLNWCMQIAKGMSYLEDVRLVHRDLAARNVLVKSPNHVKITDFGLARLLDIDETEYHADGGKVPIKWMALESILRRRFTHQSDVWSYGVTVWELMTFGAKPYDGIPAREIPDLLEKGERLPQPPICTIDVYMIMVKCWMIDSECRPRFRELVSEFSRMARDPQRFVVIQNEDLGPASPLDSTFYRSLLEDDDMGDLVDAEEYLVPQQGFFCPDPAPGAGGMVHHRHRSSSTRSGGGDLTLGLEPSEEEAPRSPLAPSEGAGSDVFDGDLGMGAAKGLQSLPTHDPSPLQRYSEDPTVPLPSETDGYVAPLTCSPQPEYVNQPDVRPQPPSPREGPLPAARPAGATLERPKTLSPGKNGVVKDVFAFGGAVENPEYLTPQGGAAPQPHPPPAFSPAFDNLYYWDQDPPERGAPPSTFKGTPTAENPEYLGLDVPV

PDK1 = biological target: T2, PDK1 (Homo sapiens, UniProt O15530); experiment: CEREP protein kinase assay; assay type: biochemical
T2 construct: purchased CEREP Panlabs (Eurofins)
T2 sequence (O15530 1-556): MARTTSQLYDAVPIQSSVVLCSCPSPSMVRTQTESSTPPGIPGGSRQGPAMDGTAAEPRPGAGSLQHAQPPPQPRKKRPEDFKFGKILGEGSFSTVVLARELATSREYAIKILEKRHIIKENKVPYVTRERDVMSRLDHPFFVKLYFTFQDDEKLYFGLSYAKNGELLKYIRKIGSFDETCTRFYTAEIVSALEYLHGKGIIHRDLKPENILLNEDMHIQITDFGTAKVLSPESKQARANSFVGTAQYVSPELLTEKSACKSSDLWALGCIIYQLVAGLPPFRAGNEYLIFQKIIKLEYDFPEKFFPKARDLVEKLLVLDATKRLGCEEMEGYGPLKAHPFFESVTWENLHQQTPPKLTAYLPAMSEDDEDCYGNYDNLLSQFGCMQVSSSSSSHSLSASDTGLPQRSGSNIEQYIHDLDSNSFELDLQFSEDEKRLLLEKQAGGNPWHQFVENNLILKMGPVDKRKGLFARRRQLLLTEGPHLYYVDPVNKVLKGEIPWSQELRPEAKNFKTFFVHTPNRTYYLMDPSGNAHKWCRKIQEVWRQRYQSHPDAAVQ

EGFR = biological target: T3, EGFR (Homo sapiens, UniProt P00533); experiment: CEREP protein kinase assay; assay type: biochemical
T3 construct: purchased CEREP Panlabs (Eurofins)
T3 sequence (P00533 25-1210): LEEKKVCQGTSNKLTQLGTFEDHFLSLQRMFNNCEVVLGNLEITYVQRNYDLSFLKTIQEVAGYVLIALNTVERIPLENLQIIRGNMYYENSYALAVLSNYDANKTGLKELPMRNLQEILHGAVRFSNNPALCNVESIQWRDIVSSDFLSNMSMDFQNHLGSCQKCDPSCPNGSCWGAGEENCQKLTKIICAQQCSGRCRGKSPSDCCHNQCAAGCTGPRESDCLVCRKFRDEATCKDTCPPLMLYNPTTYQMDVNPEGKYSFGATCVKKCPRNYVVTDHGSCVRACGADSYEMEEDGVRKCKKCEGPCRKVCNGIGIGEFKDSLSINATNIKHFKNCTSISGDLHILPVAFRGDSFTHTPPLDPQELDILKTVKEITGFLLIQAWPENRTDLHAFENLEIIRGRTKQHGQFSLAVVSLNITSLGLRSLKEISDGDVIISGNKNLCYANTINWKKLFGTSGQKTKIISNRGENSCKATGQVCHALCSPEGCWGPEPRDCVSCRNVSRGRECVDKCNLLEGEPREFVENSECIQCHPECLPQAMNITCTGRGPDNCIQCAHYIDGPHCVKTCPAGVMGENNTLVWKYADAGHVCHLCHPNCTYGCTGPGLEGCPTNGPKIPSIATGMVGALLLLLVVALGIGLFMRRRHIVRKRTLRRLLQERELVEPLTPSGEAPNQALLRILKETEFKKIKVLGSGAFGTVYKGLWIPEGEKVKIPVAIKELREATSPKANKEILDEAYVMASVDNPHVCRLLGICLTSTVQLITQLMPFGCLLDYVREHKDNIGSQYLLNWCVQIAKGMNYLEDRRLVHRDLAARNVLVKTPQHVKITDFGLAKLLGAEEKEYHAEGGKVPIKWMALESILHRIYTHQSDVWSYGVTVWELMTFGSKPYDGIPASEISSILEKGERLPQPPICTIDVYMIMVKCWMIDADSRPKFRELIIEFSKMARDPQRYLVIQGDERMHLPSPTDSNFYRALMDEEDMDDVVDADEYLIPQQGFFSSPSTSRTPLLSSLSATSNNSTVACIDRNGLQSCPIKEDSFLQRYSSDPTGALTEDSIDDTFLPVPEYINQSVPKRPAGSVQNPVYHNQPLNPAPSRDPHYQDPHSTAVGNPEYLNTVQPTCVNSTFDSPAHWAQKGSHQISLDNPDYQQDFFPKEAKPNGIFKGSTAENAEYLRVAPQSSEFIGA

FLT4 = biological target: T4, FLT4 (Homo sapiens, UniProt P35916); experiment: CEREP protein kinase assay; assay type: biochemical
T4 construct: purchased CEREP Panlabs (Eurofins)
T4 sequence (P35916 25-1363): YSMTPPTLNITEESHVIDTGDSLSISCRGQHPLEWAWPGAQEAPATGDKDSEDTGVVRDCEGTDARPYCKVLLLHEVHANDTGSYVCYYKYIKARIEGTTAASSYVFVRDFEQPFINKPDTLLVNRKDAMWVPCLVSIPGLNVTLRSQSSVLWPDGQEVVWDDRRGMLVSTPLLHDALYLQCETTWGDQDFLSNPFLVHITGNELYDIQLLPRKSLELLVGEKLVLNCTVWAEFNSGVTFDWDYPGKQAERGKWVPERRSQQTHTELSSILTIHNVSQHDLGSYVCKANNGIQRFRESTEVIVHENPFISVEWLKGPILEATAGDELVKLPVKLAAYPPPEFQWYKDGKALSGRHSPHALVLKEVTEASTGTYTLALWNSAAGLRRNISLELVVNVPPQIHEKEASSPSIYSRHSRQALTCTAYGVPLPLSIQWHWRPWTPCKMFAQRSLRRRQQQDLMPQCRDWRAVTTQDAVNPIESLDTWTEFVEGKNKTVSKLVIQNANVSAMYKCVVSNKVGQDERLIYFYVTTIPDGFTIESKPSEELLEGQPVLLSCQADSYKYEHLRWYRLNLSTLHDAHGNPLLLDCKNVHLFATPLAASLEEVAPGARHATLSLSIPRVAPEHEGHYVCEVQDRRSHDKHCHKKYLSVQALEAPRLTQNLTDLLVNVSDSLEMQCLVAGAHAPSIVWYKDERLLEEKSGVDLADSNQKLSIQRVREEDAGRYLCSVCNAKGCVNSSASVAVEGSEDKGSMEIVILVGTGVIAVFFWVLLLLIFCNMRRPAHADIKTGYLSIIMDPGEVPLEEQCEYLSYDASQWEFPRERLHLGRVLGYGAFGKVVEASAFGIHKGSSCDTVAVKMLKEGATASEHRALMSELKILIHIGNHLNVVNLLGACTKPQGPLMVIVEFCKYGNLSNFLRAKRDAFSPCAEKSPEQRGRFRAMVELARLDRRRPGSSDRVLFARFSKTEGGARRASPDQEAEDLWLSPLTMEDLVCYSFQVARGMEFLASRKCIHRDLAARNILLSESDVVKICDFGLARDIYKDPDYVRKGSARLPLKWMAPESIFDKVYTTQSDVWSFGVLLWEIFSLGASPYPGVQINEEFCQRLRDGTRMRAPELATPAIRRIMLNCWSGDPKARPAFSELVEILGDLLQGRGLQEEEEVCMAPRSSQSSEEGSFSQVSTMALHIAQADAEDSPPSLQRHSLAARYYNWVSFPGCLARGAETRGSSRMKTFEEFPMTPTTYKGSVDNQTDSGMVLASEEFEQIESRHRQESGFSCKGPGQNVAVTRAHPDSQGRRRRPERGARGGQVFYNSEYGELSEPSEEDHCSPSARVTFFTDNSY

PDGFRa = biological target: T5, PDGFRa (Homo sapiens, UniProt P16234); experiment: CEREP protein kinase assay; assay type: biochemical
T5 construct: purchased CEREP Panlabs (Eurofins)
T5 sequence (P16234 24-1089): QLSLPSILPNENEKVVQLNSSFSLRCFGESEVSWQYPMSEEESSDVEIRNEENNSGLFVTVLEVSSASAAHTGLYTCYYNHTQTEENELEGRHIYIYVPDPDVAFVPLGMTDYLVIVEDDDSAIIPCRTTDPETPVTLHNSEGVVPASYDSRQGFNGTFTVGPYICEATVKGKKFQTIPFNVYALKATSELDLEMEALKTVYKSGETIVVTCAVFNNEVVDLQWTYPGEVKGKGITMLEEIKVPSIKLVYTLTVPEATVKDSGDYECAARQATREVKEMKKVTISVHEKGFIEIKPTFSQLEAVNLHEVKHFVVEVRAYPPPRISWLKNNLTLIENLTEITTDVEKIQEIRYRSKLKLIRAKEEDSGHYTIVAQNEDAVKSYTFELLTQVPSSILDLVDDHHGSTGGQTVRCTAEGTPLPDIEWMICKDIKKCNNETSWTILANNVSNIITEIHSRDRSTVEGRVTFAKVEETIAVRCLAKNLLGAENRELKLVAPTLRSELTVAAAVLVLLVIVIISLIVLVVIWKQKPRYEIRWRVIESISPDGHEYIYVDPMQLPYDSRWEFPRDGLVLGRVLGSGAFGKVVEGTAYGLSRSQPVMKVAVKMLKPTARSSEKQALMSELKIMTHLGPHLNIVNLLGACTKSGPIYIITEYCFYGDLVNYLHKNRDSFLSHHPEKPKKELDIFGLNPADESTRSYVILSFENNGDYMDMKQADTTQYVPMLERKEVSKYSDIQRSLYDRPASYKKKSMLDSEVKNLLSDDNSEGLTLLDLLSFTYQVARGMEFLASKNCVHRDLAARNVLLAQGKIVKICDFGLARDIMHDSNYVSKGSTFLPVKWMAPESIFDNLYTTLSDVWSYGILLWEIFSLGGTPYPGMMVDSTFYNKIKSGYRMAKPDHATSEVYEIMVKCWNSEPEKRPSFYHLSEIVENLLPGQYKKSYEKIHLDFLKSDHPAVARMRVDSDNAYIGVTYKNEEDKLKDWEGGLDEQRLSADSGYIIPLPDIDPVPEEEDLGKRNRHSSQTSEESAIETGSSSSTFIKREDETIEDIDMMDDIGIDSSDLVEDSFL

MDA-MB-231 = experiment: In vitro proliferation assay, Cell Titer Glo; assay type: cell-based; settings: Homo sapiens
Excerpt: Cell Titer Glo measures ATP, thus the IC50s represent both the effect on purine production and cell proliferation, which are related. […] Folates are actively taken up in cells by reduced folate carrier (SLC19A1), proton-coupled folate transporter (SLC46A1), and the FOLR1 folate receptor[17]. Once inside the cell, folates are trapped by polyglutamation catalyzed by folylpolyglutamate synthetase (FPGS). […] Gene expression data for ATIC, GART, APRT, HPRT, FOLR1, SLC19A1, SLC46A1 & FPGS are shown in Fig. 2, since these genes were anticipated to predict sensitivity. […] The MDA-MB-231 cell line is reduced folate carrier (SLC19A1) negative due to epigenetic silencing.
as §2

[1] = RPMI media, read-out: Alamar Blue GI50 Regular folate
[2] = low folate RPMI media, read-out: Alamar Blue GI50 Low folate

## O=c1[nH]ccc2cc(F)c(NS(=O)(=O)c3ccc(N4CC[C@@H](O)C4)s3)cc12 [LSN3213128, N-(6-Fluoro-1-oxo-1,2-dihydroisoquinolin-7-yl)-5-[(3R)-3-hydroxypyrrolidin-1-yl]thiophene-2-sulfonamide]
NCI-H460 xenograft
  tumor ZMP levels: dramatically elevated
  tumor dUMP levels: remained constant
A101D (melenoma); [1]
  GI50: 3290 nM
A101D (melenoma); [2]
  GI50: 2.9 nM
NCI-H1993 (lung); [1]
  GI50: 2680 ± 2540 nM
NCI-H1993 (lung); [2]
  GI50: 3 ± 2.7 nM
NCI-H1299; [1]
  GI50: 1590 nM
NCI-H1299; [2]
  GI50: 4.8 nM
A549 (lung)
  GI50: 6 nM
MIA PaCa-2 (pancreas); [1]
  GI50: 4870 ± 4200 nM
MIA PaCa-2 (pancreas); [2]
  GI50: 1.6 ± 1 nM
HCT 116 (colon); [1]
  GI50: 2810 ± 1220 nM
HCT 116 (colon); [2]
  GI50: 2.2 ± 2.1 nM
NCI-H1155 (lung); [1]
  GI50: 729 ± 215 nM
NCI-H1155 (lung); [2]
  GI50: 4.9 nM
SW620 (colon); SW-620, RPMI media, read-out: Alamar Blue GI50 Regular folate
  GI50: 3910 ± 3240 nM
SW620 (colon); SW-620, low folate RPMI media, read-out: Alamar Blue GI50 Low folate
  GI50: 8.8 ± 1.6 nM
SNU-16 (gastric); [1]
  GI50: 1590 ± 1270 nM
SNU-16 (gastric); [2]
  GI50: 1.2 ± 1.2 nM
MDA-MB-231 (mammary); [1]
  GI50: 85 ± 42 nM
MDA-MB-231 (mammary); [2]
  GI50: 0.49 nM
NCI-H1437 (lung); [1]
  GI50: 1880 ± 894 nM
NCI-H1437 (lung); [2]
  GI50: 0.73 nM
HER2; @ 0.2 uM
  inhibition at 0.2 µM: 6.55%
HER2; @ 2 uM
  inhibition at 2 µM: 12.4%
HER2; @ 20 uM
  inhibition at 20 µM: 9.08%
PDK1; @ 0.2 uM
  inhibition at 0.2 µM: 14.1%
PDK1; @ 2 uM
  inhibition at 2 µM: 15.8%
PDK1; @ 20 uM
  inhibition at 20 µM: 26.8%
EGFR; @ 0.2 uM
  inhibition at 0.2 µM: -11.7%
EGFR; @ 2 uM
  inhibition at 2 µM: 2.87%
EGFR; @ 20 uM
  inhibition at 20 µM: -0.46%
FLT4; @ 0.2 uM
  inhibition at 0.2 µM: -9.28%
FLT4; @ 2 uM
  inhibition at 2 µM: 6.53%
FLT4; @ 20 uM
  inhibition at 20 µM: 70.5%
PDGFRa; @ 0.2 uM
  inhibition at 0.2 µM: -10.5%
PDGFRa; @ 2 uM
  inhibition at 2 µM: 12.3%
PDGFRa; @ 20 uM
  inhibition at 20 µM: 44.9%
MDA-MB-231; MDA-MB-231, breast, read-out: ABS_IC50_VALUE
  IC50: 20 nM
MDA-MB-231; MDA-MB-231, Cell Titer Glo, two doubling times, read-out: IC50 by CTG
  IC50: 7.6 nM
